# From EP0089426A1, “2-Amino-6-biphenylacetic acids” (A.H. ROBINS COMPANY, INCORPORATED, priority 1982, dated 1983)
# Assay: loss of righting test (muscle relaxant activity)
# Format: in vivo
structure (smiles),measurement,setting,value
Nc1cccc(-c2ccccc2)c1CC(=O)O [Example 6-phenyl],Percent loss of Righting reflex,Dose 50 mg/kg,0%
same,Percent loss of Righting reflex,Dose 100 mg/kg,100%
